Data: PubChem BioAssay (NCI)
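Results reflect a 48-hour exposure of cells in 96-well plates to compound at five concentrations. At the GI50, growth is halved. TGI is the concentration that stops growth completely.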

What was measured:
Assay in all cases: DTP human tumour cell line panel, 48 h
DMS 114 small cell lung = test system: DMS 114 small cell lung
LXFL 529 NSCLC = test system: LXFL 529 NSCLC
XF 498 CNS = test system: XF 498 CNS
DMS 273 small cell lung = test system: DMS 273 small cell lung
SNB-78 CNS = test system: SNB-78 CNS
DU-145 prostate = test system: DU-145 prostate
MDA-MB-435 = test system: MDA-MB-435
MDA-MB-231 breast = test system: MDA-MB-231 breast
T-47D breast = test system: T-47D breast
MCF7 breast = test system: MCF7 breast

Row | SMILES | TGI (DMS 114 small cell lung) [µM] | TGI (LXFL 529 NSCLC) [µM] | TGI (XF 498 CNS) [µM] | TGI (DMS 273 small cell lung) [µM] | TGI (SNB-78 CNS) [µM] | other results
1 | CNS(=O)(=O)NN(C)S(=O)(=O)c1ccc(C)cc1 | > 100 |  |  |  |  | 
2 | COc1cc(-c2[nH]ncc2CCCC(=O)Nc2ccccc2[N+](=O)[O-])ccc1O | 93.2 | > 100 | > 100 | > 100 |  | 
3 | COc1ccc(Nc2nc3c(N)cc(C(F)(F)F)cc3nc2-c2ccccc2)cc1 | > 100 | > 100 | > 100 | > 100 | > 100 | 
4 | COc1ccccc1NS(=O)(=O)c1cc(C(C)(C)C)ccc1OCCOc1ccc(C(C)(C)C)cc1S(=O)(=O)Nc1ccccc1OC | > 100 |  |  | > 100 | > 100 | 
5 | CCCCCNC(=O)C1C(=O)N(CCCCC)C(=O)/C1=N\N (stereo not drawn) |  | > 100 |  |  | 60 | 
6 | COc1ccc(C(=O)Nc2ccccc2)cc1[N+](=O)[O-] | > 100 | > 100 | > 100 | > 100 | > 100 | 
7 | Nc1ncn([C@@H]2C=C(CO)C(O)C2O)c(=O)n1 (stereo partly drawn) |  | > 100 | > 100 | > 100 | > 100 | 
8 | Cc1ccc(S(=O)(=O)OC(C=O)C(O)C(O)COC(c2ccccc2)(c2ccccc2)c2ccccc2)cc1 (stereo not drawn) | 33.8 | 25.7 | 29.2 | 37.9 |  | 
9 | CCOc1ccc(NC(=O)/C(=C/c2ccccc2)C(C)=O)cc1 | 26.9 |  | 28.9 | 43.2 | 38.8 | 
10 | Cc1ccc(NC(=O)CCC(=O)C2CC(=O)CCC2=O)cc1C (stereo not drawn) | > 100 | > 100 |  | > 100 | > 100 | 
11 | COC(=O)CC(CC(=O)C(=O)OC)C(=O)OC (stereo not drawn) |  | > 100 |  |  | > 100 | 
12 | CC1(C)CC(C2CC(C)(C)CC(C)(C)[C@H]2O)[C@@H](O)C(C)(C)C1 (stereo partly drawn) | > 100 | > 100 | > 100 | > 100 |  | 
13 | O=c1[nH]cnc2c1nnn2C1C=C(CO)C(O)C1O (stereo not drawn) | > 100 | > 100 | > 100 | 60.1 | > 100 | 
14 | COC1C2c3ccccc3C(C#N)(Cc3ccc4c(c32)OCO4)N1C(=O)c1ccccc1 (stereo not drawn) | > 100 | > 100 | 98.1 | 98.3 | > 100 | 
15 | CCN1N=CSC12C(=O)N(c1ccccc1)C(=O)N2c1ccccc1 (stereo not drawn) | > 100 | > 100 | > 100 |  | > 100 | 
16 | O=C1/C(=C/c2ccccc2Cl)COc2ccccc21 | 36.2 | 31.6 | 29.2 | 31.6 | 41.3 | 
17 | C#CCSc1nnnn1-c1ccc(Br)c(C)c1 |  |  |  |  |  | GI50 (DU-145 prostate): 16.6 µM; TGI (DU-145 prostate): 47.5 µM; GI50 (MDA-MB-435): 17.9 µM; TGI (MDA-MB-435): 55.8 µM; GI50 (MDA-MB-231 breast): 35.8 µM; TGI (MDA-MB-231 breast): > 100 µM; GI50 (T-47D breast): 21 µM; TGI (T-47D breast): > 100 µM; GI50 (MCF7 breast): 28.4 µM; TGI (MCF7 breast): > 100 µM

Row | SMILES | TGI (DMS 114 small cell lung) [µM] | TGI (LXFL 529 NSCLC) [µM] | TGI (XF 498 CNS) [µM] | TGI (DMS 273 small cell lung) [µM] | TGI (SNB-78 CNS) [µM] | other results
18 | CC(=O)[CH-]C(=O)c1ccccc1.CC(=O)[CH-]C(=O)c1ccccc1.[O-]Cc1cccs1.[O-]Cc1cccs1.[Ti+4] |  | > 100 |  |  |  | GI50 (LXFL 529 NSCLC): 25.3 µM
19 | OCCC#Cc1ccccc1C#Cc1ccccc1 |  |  |  |  |  | GI50 (DU-145 prostate): 12.5 µM; TGI (DU-145 prostate): 26.5 µM; GI50 (MDA-MB-435): 11.4 µM; TGI (MDA-MB-435): 23.5 µM; GI50 (MDA-MB-231 breast): 3.41 µM; TGI (MDA-MB-231 breast): 16.1 µM; GI50 (T-47D breast): 39.3 µM; TGI (T-47D breast): > 100 µM; GI50 (MCF7 breast): 22.7 µM; TGI (MCF7 breast): 46.5 µM
20 | COc1cc(-c2cn(-c3ccc(Cl)cc3)c(=O)n2-c2ccccc2)cc(OC)c1OC |  |  |  |  |  | GI50 (DU-145 prostate): > 100 µM; TGI (DU-145 prostate): > 100 µM; GI50 (MDA-MB-435): > 100 µM; TGI (MDA-MB-435): > 100 µM; GI50 (MDA-MB-231 breast): 32.9 µM; TGI (MDA-MB-231 breast): > 100 µM; GI50 (T-47D breast): 21.7 µM; TGI (T-47D breast): > 100 µM; GI50 (MCF7 breast): > 53.5 µM; TGI (MCF7 breast): > 100 µM
21 | CC1=C(C(=O)Nc2cc(F)c(F)cc2F)C(c2cccc([N+](=O)[O-])c2)C(C(=O)Nc2ccccc2C(F)(F)F)=C(C)N1 (stereo not drawn) | 57 | 53.1 |  |  | 59.2 | 
22 | Nc1cc2c3c(cccc3c1)C(=O)N(CCN1CCN(CCN3C(=O)c4cccc5cc(N)cc(c45)C3=O)CC1)C2=O | > 100 | > 100 | > 100 | > 100 |  | 
23 | COc1ccc2c(c1)C(=O)/C(=C/c1ccc(OCC(=O)c3ccc(Cl)cc3)cc1)O2 |  |  |  |  |  | GI50 (DU-145 prostate): 16.4 µM; TGI (DU-145 prostate): 29.9 µM; GI50 (MDA-MB-435): 22.9 µM; TGI (MDA-MB-435): 91.8 µM; GI50 (MDA-MB-231 breast): 17 µM; TGI (MDA-MB-231 breast): 89.7 µM; GI50 (T-47D breast): 10.5 µM; TGI (T-47D breast): 35.7 µM; GI50 (MCF7 breast): 28.3 µM; TGI (MCF7 breast): > 100 µM
24 | COC(=O)C12C3C=CC(O3)C1C1C=CC2O1 (stereo not drawn) |  | > 100 | > 100 | > 100 |  | 
25 | Oc1ccc(-c2nc(-c3ccc(F)cc3)c(-c3ccncc3)[nH]2)cc1 |  |  |  |  |  | GI50 (DU-145 prostate): 15.4 µM; TGI (DU-145 prostate): > 100 µM; GI50 (MDA-MB-435): 6.8 µM; TGI (MDA-MB-435): 35.1 µM; GI50 (MDA-MB-231 breast): 11.2 µM; TGI (MDA-MB-231 breast): > 100 µM; GI50 (T-47D breast): 8.75 µM; TGI (T-47D breast): 63 µM; GI50 (MCF7 breast): 19.4 µM; TGI (MCF7 breast): > 100 µM
26 | CCOC(=O)/C(=C/c1c(-c2ccccc2)[nH]c2ccccc12)C(=O)c1ccc(Cl)cc1 |  |  |  |  |  | GI50 (DU-145 prostate): 5.87 µM; TGI (DU-145 prostate): > 100 µM; GI50 (MDA-MB-435): 3.02 µM; TGI (MDA-MB-435): > 100 µM; GI50 (MDA-MB-231 breast): 4.74 µM; TGI (MDA-MB-231 breast): > 100 µM; GI50 (T-47D breast): 2.27 µM; TGI (T-47D breast): 8.24 µM; GI50 (MCF7 breast): 2.91 µM; TGI (MCF7 breast): > 100 µM
27 | COc1ccc(C(NCCNC(c2ccc(OC)c(OC)c2)c2cc3c(cc2O)OCO3)c2cc3c(cc2O)OCO3)cc1OC (stereo not drawn) |  |  |  |  |  | TGI (DU-145 prostate): 8.51 µM; TGI (MDA-MB-435): 4.11 µM; TGI (MDA-MB-231 breast): 8.14 µM; TGI (T-47D breast): 13.1 µM; TGI (MCF7 breast): 3.36 µM
28 | Nc1ccc(C(=O)O)c2[nH]c3ccccc3c(=O)c12 | > 100 | > 100 |  | > 100 | > 100 | 
29 | COc1cc(C2c3cc4c(cc3[C@@H](OCCN)[C@H]3COC(=O)C23)OCO4)cc(OC)c1O (stereo partly drawn) | 0.162 | 7.75 | 0.489 |  | > 58.9 | 
30 | CCN=C(N)CSS(=O)(=O)O |  |  |  |  |  | TGI (DU-145 prostate): > 100 µM; TGI (MDA-MB-435): > 100 µM; TGI (MDA-MB-231 breast): > 100 µM; TGI (T-47D breast): > 100 µM; TGI (MCF7 breast): > 100 µM
31 | CC(=O)OCC1OC(n2cnc3c(I)nc(I)nc32)C(OC(C)=O)C1OC(C)=O (stereo not drawn) | 13.1 | 26.1 | 35.9 | 20.2 |  | 
32 | c1ccc(CNc2nc(Nc3ccc(-c4nc5ccccc5[nH]4)cc3)c3cn[nH]c3n2)cc1 |  |  |  |  |  | GI50 (DU-145 prostate): 3.33 µM; TGI (DU-145 prostate): 12.5 µM; GI50 (MDA-MB-435): 1.97 µM; TGI (MDA-MB-435): 5.15 µM; GI50 (MDA-MB-231 breast): 2.11 µM; TGI (MDA-MB-231 breast): 4.97 µM; GI50 (T-47D breast): 1.63 µM; TGI (T-47D breast): 5.46 µM; GI50 (MCF7 breast): 1.95 µM; TGI (MCF7 breast): 6.35 µM
33 | Cn1c(=O)c2c(nc3n2C(CCl)CO3)n(C)c1=O (stereo not drawn) | > 100 |  |  | > 100 | > 100 | 
